The results in this text go back to patent US4505929A, “Sulfur-substituted diphenyl ethers having antiviral activity” (The Dow Chemical Company, priority 1982, dated 1985).

Assay type in all cases: cell-based
For data set [1], the system named is rhinovirus type 1A (RV-1A). Description: Tissue culture antiviral test (HeLa cells), RV-1A. The conditions noted are these: Enterovirus, 48 and 72 hours post-treatment, read-out: Lowest concentration necessary to cause a 50 percent reduction in cytopathic effect, RV-1A. The protocol: (§1) Monolayered HeLa cells in 16 millimeter (mm) tissue culture dishes were treated with 1 ml of culture medium (Eagles medium supplemented with fetal calf serum) containing subject compound at an appropriate concentration or containing no compound at all. Culture media such as those described herein are more fully described in standard texts, as for example, Kuchler's Biochemical Methods in Cell Culture and Virology, Dowden, Hutchinson and Ross, Inc., Stroudsberg, PA (1977). Following treatment, cells were challenged with 0.05 ml of rhinovirus type 1A (RV-1A), rhinovirus type 2 (RV-2) or Coxsackie A21 virus (Cox A21) in culture medium. Some of the compounds were also tested against rhinovirus type 5 (RV-5), rhinovirus type 8 (RV-8) or rhinovirus type 64 (RV-64). Cell controls received no viruses.
(§2) ^xx Lowest concentration of the compound (μg/ml) necessary to caus
(§3) a 50 percent reduction in cytopathic effect.

Data set [2] in a line: Cytotoxicity to HeLa cells in tissue culture testing. As to conditions: human, concentration found to be toxic to the cell, observed at 48 and 72 hours, read-out: Cytotoxicity. The protocol: as §1
^x Cytotoxicity figures represent the concentration of the compound,
micrograms/milliliter (μg/ml) found to be toxic to the cell.
means "approximately "; "<<" "considerably less than " and "G.I." means

A further data set concerns rhinovirus type 5 (RV-5). Description: Tissue culture antiviral test (HeLa cells), RV-5. As to conditions: Enterovirus, 48 and 72 hours post-treatment, read-out: Lowest concentration necessary to cause a 50 percent reduction in cytopathic effect, RV-5. The protocol: as §1, §2, §3
The next data set deals with rhinovirus type 2 (RV-2). Description: Tissue culture antiviral test (HeLa cells), RV-2. As to conditions: Enterovirus, 48 and 72 hours post-treatment, read-out: Lowest concentration necessary to cause a 50 percent reduction in cytopathic effect, RV-2. The method, then:
as §1, §2, §3

The test system of data set [3] is Coxsackie A21 virus (Cox A21). Description: Tissue culture antiviral test (HeLa cells), Cox A21. The conditions noted are these: 48 and 72 hours post-treatment, read-out: Lowest concentration necessary to cause a 50 percent reduction in cytopathic effect, Cox A21. The protocol: as §1, §2, §3
For data set [4], the system named is rhinovirus type 64 (RV-64). Description: Tissue culture antiviral test (HeLa cells), RV-64. The conditions noted are these: Enterovirus, 48 and 72 hours post-treatment, read-out: Lowest concentration necessary to cause a 50 percent reduction in cytopathic effect, RV-64. The method, then:
as §1, §2, §3

Another data set has as its system rhinovirus type 8 (RV-8). As to the kind of experiment: Tissue culture antiviral test (HeLa cells), RV-8. The conditions noted are these: Enterovirus, 48 and 72 hours post-treatment, read-out: Lowest concentration necessary to cause a 50 percent reduction in cytopathic effect, RV-8. The method, then:
as §1, §2, §3

In brackets after ≈: the same amount, converted by molar mass.

Take `CC(=O)c1ccc(Oc2ccc(S(C)(=O)=O)cc2)cc1` [Example 3, 1-(4-(4-(Methylsulfonyl)phenoxy)phenyl)ethanone]: the EC50 in data set [1] is 25 µg/mL (≈ 86.1 µM); with rhinovirus type 5 (RV-5), 25 µg/mL (≈ 86.1 µM); in the data set with rhinovirus type 2 (RV-2), 12.5 µg/mL (≈ 43.1 µM); in data set [3] it was less than 6.25 µg/mL; in data set [4], less than 6.25 µg/mL; in the data set on rhinovirus type 8 (RV-8), 25 µg/mL (≈ 86.1 µM). The MCC in data set [2] amounted to 50 µg/mL.
As to `CCN(CC)S(=O)(=O)c1ccc(Oc2ccc(S(=O)(=O)C(F)(F)F)cc2)cc1` [Example 26, N,N-Diethyl-4-(4-((trifluoromethyl)sulfonyl)phenoxy)benzenesulfonamide], the EC50 was 0.312 µg/mL (≈ 0.714 µM) in data set [1]; 0.625 µg/mL (≈ 1.43 µM) with rhinovirus type 5 (RV-5); 0.3 µg/mL (≈ 0.686 µM) in the data set on rhinovirus type 2 (RV-2); not above 0.3 µg/mL in data set [3]; 0.625 µg/mL (≈ 1.43 µM) in data set [4]; not above 0.312 µg/mL in the data set with rhinovirus type 8 (RV-8). The MCC in data set [2] is 0.625 µg/mL.
